Experiments:
Test in all cases: relative viability (nuclei count vs DMSO), 5 days (fraction); higher = more cells survive
NCI-H1437 = tested on: NCI-H1437
In short: (§1)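 Cells from lung cancer lines were seeded into 1536-well plates and, one day later, dosed by pin tool. Treatments were either a single drug or a fixed dose of an anchor drug with five library-drug doses (not always all listed) in √10 steps. After 5 days, nuclei were stained in a one-step fixation (final 0.05% Triton X-100, 1% formaldehyde, 1 ug/ml Hoechst) and counted on 4× images, and relative viability is the treated-to-vehicle nuclei ratio, as the median of duplicate plates.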

A-427 = tested on: A-427
In short: as §1

SW 900 = tested on: SW 900
In short: as §1

NCI-H838 = tested on: NCI-H838
In short: as §1

NCI-H1975 = tested on: NCI-H1975
In short: as §1

NCI-H1666 = tested on: NCI-H1666
In short: as §1

NCI-H520 = tested on: NCI-H520
In short: as §1

HCC-15 = tested on: HCC-15
In short: as §1

SK-MES-1 = tested on: SK-MES-1
In short: as §1

COR-L 105 = tested on: COR-L 105
In short: as §1

NCI-H596 = tested on: NCI-H596
In short: as §1

HCC-827 = tested on: HCC-827
In short: as §1

COR-L23 = tested on: COR-L23
In short: as §1

EKVX = tested on: EKVX
In short: as §1

LCLC-103H = tested on: LCLC-103H
In short: as §1

NCI-H522 = tested on: NCI-H522
In short: as §1

HARA = tested on: HARA
In short: as §1

NCI-H441 = tested on: NCI-H441
In short: as §1

NCI-H23 = tested on: NCI-H23
In short: as §1

NCI-H1792 = tested on: NCI-H1792
In short: as §1

201T = tested on: 201T
In short: as §1

LK-2 = tested on: LK-2
In short: as §1

NCI-H650 = tested on: NCI-H650
In short: as §1

**Q.** For `CC(C)Oc1cc(Nc2nc(N[C@@H](C)c3ccc(F)cn3)ncc2Cl)n[nH]1` [AZ23] + Cc1nc(Nc2ncc(C(=O)Nc3c(C)cccc3Cl)s2)cc(N2CCN(CCO)CC2)n1 [Dasatinib] (partner 0.075 µM), which relative viability (NCI-H1437; first compound 0.01 µM) is on record?
**A.** 0.354

**Q.** What about the relative viability (NCI-H1437; first compound 0.03162 µM) of the same compound?
**A.** 0.443

**Q.** What about the relative viability (NCI-H1437; first compound 0.3162 µM) of the same compound?
**A.** 0.418

**Q.** And the relative viability (A-427; first compound 0.01 µM)?
**A.** 0.701

**Q.** And the relative viability (A-427; first compound 0.03162 µM)?
**A.** 0.862

**Q.** And the relative viability (A-427; first compound 0.3162 µM)?
**A.** 0.684

**Q.** And the relative viability (SW 900; first compound 0.01 µM)?
**A.** 0.385

**Q.** What about the relative viability (SW 900; first compound 0.03162 µM) of the same compound?
**A.** 0.593

**Q.** And the relative viability (SW 900; first compound 0.3162 µM)?
**A.** 0.541

**Q.** And the relative viability (NCI-H838; first compound 0.01 µM)?
**A.** 0.255

**Q.** What about the relative viability (NCI-H838; first compound 0.03162 µM) of the same compound?
**A.** 0.317

**Q.** And the relative viability (NCI-H838; first compound 0.3162 µM)?
**A.** 0.293

**Q.** What about the relative viability (NCI-H1975; first compound 0.01 µM) of the same compound?
**A.** 0.453

**Q.** And the relative viability (NCI-H1975; first compound 0.03162 µM)?
**A.** 0.405

**Q.** What about the relative viability (NCI-H1975; first compound 0.3162 µM) of the same compound?
**A.** 0.326

**Q.** What about the relative viability (NCI-H1666; first compound 0.01 µM) of the same compound?
**A.** 0.891

**Q.** And the relative viability (NCI-H1666; first compound 0.03162 µM)?
**A.** 0.927

**Q.** And the relative viability (NCI-H1666; first compound 0.3162 µM)?
**A.** 0.809

**Q.** What about the relative viability (NCI-H520; first compound 0.01 µM) of the same compound?
**A.** 0.194

**Q.** What about the relative viability (NCI-H520; first compound 0.03162 µM) of the same compound?
**A.** 0.24

**Q.** And the relative viability (NCI-H520; first compound 0.3162 µM)?
**A.** 0.162

**Q.** What about the relative viability (HCC-15; first compound 0.01 µM) of the same compound?
**A.** 0.642

**Q.** And the relative viability (HCC-15; first compound 0.03162 µM)?
**A.** 0.712

**Q.** What about the relative viability (HCC-15; first compound 0.3162 µM) of the same compound?
**A.** 0.575

**Q.** What about the relative viability (SK-MES-1; first compound 0.03162 µM) of the same compound?
**A.** 0.275

**Q.** What about the relative viability (SK-MES-1; first compound 0.3162 µM) of the same compound?
**A.** 0.288

**Q.** What about the relative viability (COR-L 105; first compound 0.01 µM) of the same compound?
**A.** 0.339

**Q.** What about the relative viability (COR-L 105; first compound 0.03162 µM) of the same compound?
**A.** 0.374

**Q.** What about the relative viability (COR-L 105; first compound 0.3162 µM) of the same compound?
**A.** 0.341

**Q.** And the relative viability (NCI-H596; first compound 0.01 µM)?
**A.** 0.52

**Q.** What about the relative viability (NCI-H596; first compound 0.03162 µM) of the same compound?
**A.** 0.616

**Q.** And the relative viability (NCI-H596; first compound 0.3162 µM)?
**A.** 0.557

**Q.** What about the relative viability (HCC-827; first compound 0.01 µM) of the same compound?
**A.** 0.301

**Q.** And the relative viability (HCC-827; first compound 0.03162 µM)?
**A.** 0.288

**Q.** What about the relative viability (HCC-827; first compound 0.3162 µM) of the same compound?
**A.** 0.282

**Q.** And the relative viability (COR-L23; first compound 0.01 µM)?
**A.** 0.485

**Q.** What about the relative viability (COR-L23; first compound 0.03162 µM) of the same compound?
**A.** 0.645

**Q.** What about the relative viability (COR-L23; first compound 0.3162 µM) of the same compound?
**A.** 0.504

**Q.** What about the relative viability (EKVX; first compound 0.01 µM) of the same compound?
**A.** 0.503

**Q.** And the relative viability (EKVX; first compound 0.03162 µM)?
**A.** 0.551

**Q.** And the relative viability (EKVX; first compound 0.3162 µM)?
**A.** 0.48

**Q.** What about the relative viability (LCLC-103H; first compound 0.01 µM) of the same compound?
**A.** 0.443

**Q.** And the relative viability (LCLC-103H; first compound 0.03162 µM)?
**A.** 0.576

**Q.** And the relative viability (LCLC-103H; first compound 0.3162 µM)?
**A.** 0.499

**Q.** What about the relative viability (NCI-H522; first compound 0.01 µM) of the same compound?
**A.** 0.716

**Q.** What about the relative viability (NCI-H522; first compound 0.03162 µM) of the same compound?
**A.** 0.933

**Q.** What about the relative viability (NCI-H522; first compound 0.3162 µM) of the same compound?
**A.** 1.02

**Q.** And the relative viability (HARA; first compound 0.03162 µM)?
**A.** 0.37

**Q.** What about the relative viability (HARA; first compound 0.3162 µM) of the same compound?
**A.** 0.217

**Q.** And the relative viability (NCI-H441; first compound 0.01 µM)?
**A.** 0.683

**Q.** What about the relative viability (NCI-H441; first compound 0.03162 µM) of the same compound?
**A.** 0.745

**Q.** And the relative viability (NCI-H441; first compound 0.3162 µM)?
**A.** 0.699

**Q.** What about the relative viability (NCI-H23; first compound 0.03162 µM) of the same compound?
**A.** 0.883

**Q.** And the relative viability (NCI-H23; first compound 0.3162 µM)?
**A.** 0.761

**Q.** And the relative viability (NCI-H1792; first compound 0.01 µM)?
**A.** 0.804

**Q.** What about the relative viability (NCI-H1792; first compound 0.03162 µM) of the same compound?
**A.** 1.16

**Q.** And the relative viability (NCI-H1792; first compound 0.3162 µM)?
**A.** 0.672

**Q.** What about the relative viability (201T; first compound 0.01 µM) of the same compound?
**A.** 0.506

**Q.** What about the relative viability (201T; first compound 0.03162 µM) of the same compound?
**A.** 0.614

**Q.** And the relative viability (201T; first compound 0.3162 µM)?
**A.** 0.569

**Q.** And the relative viability (LK-2; first compound 0.01 µM)?
**A.** 0.262

**Q.** What about the relative viability (LK-2; first compound 0.03162 µM) of the same compound?
**A.** 0.286

**Q.** And the relative viability (LK-2; first compound 0.3162 µM)?
**A.** 0.335

**Q.** What about the relative viability (NCI-H650; first compound 0.01 µM) of the same compound?
**A.** 0.441

**Q.** What about the relative viability (NCI-H650; first compound 0.03162 µM) of the same compound?
**A.** 0.46

**Q.** And the relative viability (NCI-H650; first compound 0.3162 µM)?
**A.** 0.48

— the supplement of paper PMC10307832
